Results: ChEMBL document CHEMBL5046262, “Fragment-Based Discovery of MRTX1719, a Synthetic Lethal Inhibitor of the PRMT5•MTA Complex for the Treatment of MTAP-Deleted Cancers” (J Med Chem, 2022)
Several values for one entry are separate records, joined by “and”; a condition that tells them apart may be missing. Equal entries are not always repeated.

Assays:
PRMT5/MEP50 complex = PRMT5/MEP50 complex (Homo sapiens, UniProt O14744); assay: Inhibition of streptavidin sensor chip immobilized biotinylated human PRMT5/MEP50 assessed as dissociation constant by SPR analysis; type: protein-complex assay
[1] = Apparent permeability across apical to basolateral side in dog MDCKII-MDR1 cells at 2 uM incubated for 2.5 hrs by LC-MS/MS analysis; type: ADME, cell-based, Canis lupus familiaris, MDCK-MDR1; conditions: for Papp A→B at 2.5 h, 2 µM: MDCK-MDR1; for Papp: mdck-mdr1, 2.5 h, 2 µM, 2.5 h
[2] = Efflux ratio of apparent permeability across basolateral to apical side over apical to basolateral side in dog MDCKII-MDR1 cells at 2 uM incubated for 2.5 hrs by LC-MS/MS analysis; type: ADME, cell-based, Canis lupus familiaris, MDCK-MDR1; conditions: for efflux ratio at 2.5 h, 2 µM: MDCK-MDR1
[3] = biological target: T1, Protein arginine N-methyltransferase 5 (Homo sapiens, UniProt O14744); assay: Inhibition of PRMT5 methyltransferase activity in MTAP knockout human HCT-116 cells assessed as inhibition of PRMT5- mediated SDMA modification level incubated for 96 hrs by Western blot analysis; type: cell-based
[4] = biological target: T1, Protein arginine N-methyltransferase 5; assay: Inhibition of PRMT5 methyltransferase activity in human HCT-116 cells expressing wild type MTAP assessed as inhibition of PRMT5- mediated SDMA modification level incubated for 96 hrs by Western blot analysis; type: cell-based
HCT-116 [5] = assay: Antiproliferative activity against MTAP knockout human HCT-116 cells assessed as reduction in cell viability incubated for 5 days followed by replacement with fresh medium containing compound and measured after 5 days by CTG assay; type: functional, cell-based
HCT-116 [6] = assay: Antiproliferative activity against human HCT-116 cells expressing wild type MTAP assessed as reduction in cell viability incubated for 5 days followed by replacement with fresh medium containing compound and measured after 5 days by CTG assay; type: functional, cell-based
[7] = Intrinsic clearance in human hepatocytes; type: ADME, cell-based, Hepatocyte; conditions: read-out: CLH
[8] = Intrinsic clearance in mouse hepatocytes; type: ADME, cell-based, Hepatocyte; conditions: read-out: CLH
[9] = Selectivity ratio of IC50 for antiproliferative activity against human HCT-116 cells expressing wild type MTAP to IC50 for antiproliferative activity against MTAP knockout human HCT-116 cells; type: functional
[10] = Total clearance in CD-1 mouse at 3 mg/kg, iv measured upto 24 hrs by LC-MS/MS analysis; type: ADME, organism-based; conditions: in vivo
[11] = Volume of distribution at steady state in CD-1 mouse at 3 mg/kg, iv measured upto 24 hrs by LC-MS/MS analysis; type: ADME, organism-based; conditions: in vivo, read-out: Vdss
[12] = Half life in CD-1 mouse at 3 mg/kg, iv measured upto 24 hrs by LC-MS/MS analysis; type: ADME, organism-based; conditions: in vivo
[13] = Cmax in CD-1 mouse at 30 mg/kg, po administered via gavage measured upto 24 hrs by LC-MS/MS analysis; type: ADME, organism-based; set-up: route oral, dose 30 mg/kg, time <=24; conditions: in vivo
[14] = AUCinfinity in CD-1 mouse at 30 mg/kg, po administered via gavage measured upto 24 hrs by LC-MS/MS analysis; type: ADME, organism-based; set-up: route oral, dose 30 mg/kg, time <=24; conditions: in vivo
[15] = Oral bioavailability in CD-1 mouse at 30 mg/kg administered via gavage measured upto 24 hrs by LC-MS/MS analysis; type: ADME, organism-based; conditions: in vivo
[16] = Total clearance in beagle dog at 2 mg/kg, iv measured upto 24 hrs by LC-MS/MS analysis; type: ADME, organism-based, Canis lupus familiaris; conditions: in vivo
[17] = Volume of distribution at steady state in beagle dog at 2 mg/kg, iv measured upto 24 hrs by LC-MS/MS analysis; type: ADME, organism-based, Canis lupus familiaris; conditions: in vivo, read-out: Vdss
[18] = Half life in beagle dog at 2 mg/kg, iv measured upto 24 hrs by LC-MS/MS analysis; type: ADME, organism-based, Canis lupus familiaris; conditions: in vivo
[19] = Cmax in beagle dog at 10 mg/kg, po administered via gavage measured upto 24 hrs by LC-MS/MS analysis; type: ADME, organism-based, Canis lupus familiaris; set-up: route oral, dose 10 mg/kg, time <=24; conditions: in vivo
[20] = AUCinfinity in beagle dog at 10 mg/kg, po administered via gavage measured upto 24 hrs by LC-MS/MS analysis; type: ADME, organism-based, Canis lupus familiaris; set-up: route oral, dose 10 mg/kg, time <=24; conditions: in vivo
[21] = Oral bioavailability in beagle dog at 10 mg/kg administered via gavage measured upto 24 hrs by LC-MS/MS analysis; type: ADME, organism-based, Canis lupus familiaris; conditions: in vivo
[22] = Total clearance in cynomolgus monkey at 2 mg/kg, iv measured upto 24 hrs by LC-MS/MS analysis; type: ADME, organism-based, Macaca fascicularis; conditions: in vivo
[23] = Volume of distribution at steady state in cynomolgus monkey at 2 mg/kg, iv measured upto 24 hrs by LC-MS/MS analysis; type: ADME, organism-based, Macaca fascicularis; conditions: in vivo, read-out: Vdss
[24] = Half life in cynomolgus monkey at 2 mg/kg, iv measured upto 24 hrs by LC-MS/MS analysis; type: ADME, organism-based, Macaca fascicularis; conditions: in vivo
[25] = Oral bioavailability in cynomolgus monkey at 10 mg/kg administered via gavage measured upto 24 hrs by LC-MS/MS analysis; type: ADME, organism-based, Macaca fascicularis; conditions: in vivo
Lu-99 cell line [26] = assay: Antitumor activity against MTAP/CDKN2A deleted human Lu-99 cells xenografted in Hsd athymic nude mouse assessed as tumor growth inhibition at 50 mg/kg, po qd administered via oral gavage for 21 days by caliper method relative to control; type: functional; conditions: Lu-99, po, 504 h, time 21 day, read-out: TGI
Lu-99 cell line [27] = assay: Antitumor activity against MTAP/CDKN2A deleted human Lu-99 cells xenografted in Hsd athymic nude mouse assessed as tumor growth inhibition at 100 mg/kg, po qd administered via oral gavage for 21 days by caliper method relative to control; type: functional; conditions: Lu-99, po, 504 h, time 21 day, read-out: TGI
Lu-99 cell line [28] = assay: Antitumor activity against MTAP/CDKN2A deleted human Lu-99 cells xenografted in Hsd athymic nude mouse assessed as reduction in PRMT5 mediated SDMA level in tumor at 12.5 to 100 mg/kg, po qd administered via oral gavage for 21 days relative to control; type: functional; set-up: scale not given: the % may be the effect or the level left; conditions: dose 12.5-100 mg/kg, time 21 day
[29] = Toxicity in Hsd athymic nude mouse xenografted with MTAP/CDKN2A deleted human Lu-99 cells assessed as effect on body weight at 12.5 to 100 mg/kg, po qd administered via oral gavage for 21 days; type: organism-based, Lu-99 cell line; conditions: in vivo, 504 h, dose 12.5-100 mg/kg, time 21 day
[30] = Inhibition of PRMT5 C449S mutant/MEP50 (unknown origin) using Histone H2A as substrate; set-up: species or system Homo sapiens
[31] = biological target: T1, Protein arginine N-methyltransferase 5; assay: Binding affinity to MTA-bound human PRMT5 assessed as dissociation constant by SPR assay
[32] = biological target: T1, Protein arginine N-methyltransferase 5
[33] = biological target: T1, Protein arginine N-methyltransferase 5; remark: listed apart in the source
[34] = Lipophilicity, logD of the compound at pH 7.4; type: physicochemical; conditions: buffer
Homo sapiens = organism: Homo sapiens; assay: Selectivity ratio of IC50 for inhibition of PRMT5 methyltransferase activity in human HCT-116 cells expressing wild type MTAP to IC50 for nhibition of PRMT5 methyltransferase activity in MTAP knockout human HCT-116 cells; type: cell-based

T1 sequence (O14744 whole entry): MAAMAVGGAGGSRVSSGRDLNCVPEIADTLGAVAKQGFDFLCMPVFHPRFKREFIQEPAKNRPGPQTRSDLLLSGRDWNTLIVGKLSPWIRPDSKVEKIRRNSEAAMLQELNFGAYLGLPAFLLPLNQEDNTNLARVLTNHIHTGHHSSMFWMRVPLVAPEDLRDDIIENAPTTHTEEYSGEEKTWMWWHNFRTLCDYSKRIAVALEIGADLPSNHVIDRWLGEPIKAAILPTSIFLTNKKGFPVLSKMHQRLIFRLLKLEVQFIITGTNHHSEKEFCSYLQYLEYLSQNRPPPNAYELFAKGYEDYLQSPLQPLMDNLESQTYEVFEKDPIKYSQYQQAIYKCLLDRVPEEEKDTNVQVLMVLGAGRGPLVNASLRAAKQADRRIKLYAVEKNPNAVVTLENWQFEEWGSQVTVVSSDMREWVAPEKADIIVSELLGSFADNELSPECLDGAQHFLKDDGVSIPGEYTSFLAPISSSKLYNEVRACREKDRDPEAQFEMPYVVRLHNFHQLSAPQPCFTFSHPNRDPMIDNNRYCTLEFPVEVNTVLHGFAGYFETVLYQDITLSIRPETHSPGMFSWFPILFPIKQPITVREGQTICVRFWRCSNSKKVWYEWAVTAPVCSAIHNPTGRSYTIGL
Chain of PRMT5/MEP50 complex (O14744 whole entry): as above
Chain of PRMT5/MEP50 complex (Q9BQA1 whole entry, further chain): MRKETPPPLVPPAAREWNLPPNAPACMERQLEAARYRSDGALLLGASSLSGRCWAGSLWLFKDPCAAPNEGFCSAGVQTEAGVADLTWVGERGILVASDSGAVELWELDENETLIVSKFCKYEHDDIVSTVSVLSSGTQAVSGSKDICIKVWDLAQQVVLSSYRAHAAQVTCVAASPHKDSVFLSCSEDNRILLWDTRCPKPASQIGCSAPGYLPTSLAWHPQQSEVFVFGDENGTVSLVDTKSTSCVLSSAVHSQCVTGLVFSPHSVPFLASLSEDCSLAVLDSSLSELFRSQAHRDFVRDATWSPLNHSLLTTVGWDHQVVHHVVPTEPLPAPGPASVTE

SMILES: C[S@@+](CC[C@H](N)C(=O)[O-])C[C@H]1O[C@@H](n2cnc3c(N)ncnc32)[C@H](O)[C@@H]1O
- Kd (PRMT5/MEP50 complex): 550 nM

SMILES: Cn1ncc(-c2ccc3c(=O)[nH]nc(CN)c3c2)c1-c1cc(Cl)cc(OC2CC2)c1C#N
- Papp A→B at 2.5 h, 2 µM [1]: 0.2 ×10⁻⁶ cm/s
- efflux ratio at 2.5 h, 2 µM [2]: 121
- IC50 [3]: 8 nM
- IC50 [4]: 834 nM
- IC50 (HCT-116 [5]): 41 nM
- IC50 (HCT-116 [6]): 990 nM
- CLint scaled [7]: < 18 mL/min/kg
- CLint scaled [8]: 336 mL/min/kg
- Ratio IC50 [9]: 24

SMILES: Cn1ncc(-c2ccc3c(=O)[nH]nc(CN)c3c2)c1-c1c(F)cc2ccccc2c1C#N
- Papp A→B at 2.5 h, 2 µM [1]: 0.4 ×10⁻⁶ cm/s
- Papp [1]: 0.3 ×10⁻⁶ cm/s
- efflux ratio at 2.5 h, 2 µM [2]: 85
- Ratio ([2]; mdck-mdr1, 2.5 h, 2 µM, 2.5 h): 136
- IC50 [4]: 569 nM and > 1000 nM
- IC50 (HCT-116 [6]): 1020 nM and 5930 nM
- CLint scaled [7]: 18 mL/min/kg
- CLint scaled [8]: 255 mL/min/kg
- clearance [10]: 78 mL/min/kg
- Vd [11]: 5.3 L/kg
- half-life [12]: 1.5 h
- Cmax [13]: 590 ng/mL
- AUC(0-inf) [14]: 2730 ng·h/mL
- bioavailability [15]: 34%
- clearance [16]: 21 mL/min/kg
- Vd [17]: 4.4 L/kg
- half-life [18]: 3.9 h
- Cmax [19]: 880 ng/mL
- AUC(0-inf) [20]: 4800 ng·h/mL
- bioavailability [21]: 60%
- clearance [22]: 24 mL/min/kg
- Vd [23]: 3.3 L/kg
- half-life [24]: 2.6 h
- bioavailability [25]: 28%

SMILES: Cn1ncc(-c2ccc3c(=O)[nH]nc(CN)c3c2)c1-c1c(F)c(Cl)cc(OC2CC2)c1C#N
- Papp A→B at 2.5 h, 2 µM [1]: < 0.2 ×10⁻⁶ cm/s
- Papp [1]: 0.3 ×10⁻⁶ cm/s
- CLint scaled [7]: < 18 mL/min/kg
- clearance [10]: 83 mL/min/kg
- Vd [11]: 6.3 L/kg
- half-life [12]: 1.5 h
- Cmax [13]: 1160 ng/mL
- AUC(0-inf) [14]: 4850 ng·h/mL
- bioavailability [15]: 80%
- clearance [16]: 14 mL/min/kg
- Vd [17]: 3.4 L/kg
- half-life [18]: 4.8 h
- Cmax [19]: 1400 ng/mL
- AUC(0-inf) [20]: 7470 ng·h/mL
- bioavailability [21]: 59%
- clearance [22]: 15 mL/min/kg
- Vd [23]: 2.3 L/kg
- half-life [24]: 6.1 h
- bioavailability [25]: 41%
- inhibition in vivo at 50 mg/kg (Lu-99 cell line [26]): 86%
- inhibition in vivo at 100 mg/kg (Lu-99 cell line [27]): 88%
- Activity (Lu-99 cell line [28]): 86%
- Activity [29]: Non-Toxic
- IC50 [30]: 717 nM

SMILES: NCc1nnc(O)c2ccc(-c3ccccc3)cc12
- Papp A→B at 2.5 h, 2 µM [1]: 16 ×10⁻⁶ cm/s
- efflux ratio at 2.5 h, 2 µM [2]: 0.8
- Kd [31]: 1620 nM
- IC50 [32]: 14500 nM
- IC50 [33]: 4300 nM

SMILES: CSC[C@H]1O[C@@H](n2cnc3c(N)ncnc32)[C@H](O)[C@@H]1O [METHYLTHIOADENOSINE]
- Kd (PRMT5/MEP50 complex): 661 nM

SMILES: Cn1cc(-c2ccc3c(=O)[nH]nc(CN)c3c2)cn1
- logD [34]: -0.5
- Papp A→B at 2.5 h, 2 µM [1]: 2.3 ×10⁻⁶ cm/s

SMILES: Cn1ncc(-c2ccc3c(=O)[nH]nc(CN)c3c2)c1-c1cccc(OC2CC2)c1C#N
- Papp A→B at 2.5 h, 2 µM [1]: 0.3 ×10⁻⁶ cm/s
- efflux ratio at 2.5 h, 2 µM [2]: 104
- IC50 [3]: 34 nM
- IC50 [4]: 6550 nM
- IC50 (HCT-116 [5]): 129 nM
- IC50 (HCT-116 [6]): 6820 nM
- CLint scaled [7]: < 18 mL/min/kg
- CLint scaled [8]: 237 mL/min/kg
- Ratio IC50 (Homo sapiens): 193
- Ratio IC50 [9]: 53
- IC50 [33]: 1000 nM
